The values below are quoted from earlier work in patent publication US20080102081A1, “Preparations and applications for treatment of high cholesterol levels” (priority 2006, published 2008).

SMILES strings stand for the structures.

The conditions of series [1]: clinical trials, patients at lower dosages.
The conditions of series [2]: denominator of prescription volume.

`CC(C)c1c(C(=O)Nc2ccccc2)c(-c2ccccc2)c(-c2ccc(F)cc2)n1CC[C@@H](O)C[C@@H](O)CC(=O)O` [Atorvastatin]: in series [1], the “elevation of hepatic enzyme activity” value was 0.7%.

For the compound `COCc1c(C(C)C)nc(C(C)C)c(/C=C/[C@@H](O)C[C@@H](O)CC(=O)O)c1-c1ccc(F)cc1` [Cerivastatin], the fatal rhabdomyolysis rate in series [2] is on record as 3.16 fatal cases/million prescriptions.
